Experimental data taken from PubChem BioAssay (NCI).
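Interpolation was linear, between the two tested concentrations surrounding the appropriate level; five concentrations were tested over 48 hours in 96-well plates. Definition used: TGI = concentration required for complete inhibition of growth.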

How the values were obtained:
Test in all cases: growth of human tumour cells (NCI), 48 h
[1] = test system: MDA-MB-435
[2] = test system: NCI-H460 lung
[3] = test system: COLO 205 colon
[4] = test system: MALME-3M melanoma
[5] = test system: SK-MEL-2 melanoma
[6] = test system: HS 578T breast
[7] = test system: SNB-75 CNS
[8] = test system: SF-295 CNS
[9] = test system: UACC-62 melanoma
[10] = test system: SK-MEL-28 melanoma
[11] = test system: HCC-2998 colon
[12] = test system: A549 NSCLC
[13] = test system: SN12C renal
[14] = test system: MDA-MB-231 breast
[15] = test system: UO-31 renal
[16] = test system: UACC-257 melanoma
[17] = test system: TK-10 renal
[18] = test system: OVCAR-8 ovarian
[19] = test system: IGROV1 ovarian
[20] = test system: U251 CNS
[21] = test system: SK-OV-3 ovarian
[22] = test system: ACHN renal
[23] = test system: HOP-62 NSCLC
[24] = test system: SNB-19 CNS
[25] = test system: MCF7 breast
[26] = test system: OVCAR-5 ovarian
[27] = test system: OVCAR-3 ovarian
[28] = test system: SR leukemia
[29] = test system: LOX IMVI melanoma
[30] = test system: HCT-116 colon
[31] = test system: SK-MEL-5 melanoma
[32] = test system: 786-0 renal
[33] = test system: NCI/ADR-RES ovarian
[34] = test system: CCRF-CEM leukemia
[35] = test system: NCI-H522 lung
[36] = test system: SF-539 CNS
[37] = test system: BT-549 breast
[38] = test system: PC-3 prostate
[39] = test system: M14 melanoma
[40] = test system: EKVX NSCLC
[41] = test system: HCT-15 colon
[42] = test system: HT29 colon
[43] = test system: OVCAR-4 ovarian
[44] = test system: DU-145 prostate
[45] = test system: K-562 leukemia
[46] = test system: SW-620 colon
[47] = test system: NCI-H226 lung
[48] = test system: CAKI-1 renal
[49] = test system: SF-268 CNS
[50] = test system: RXF 393 renal
[51] = test system: NCI-H23 lung
[52] = test system: HOP-92 NSCLC
[53] = test system: T-47D breast
[54] = test system: MOLT-4 leukemia
[55] = test system: KM12 colon
[56] = test system: A498 renal
[57] = test system: RPMI-8226 leukemia
[58] = test system: HL-60(TB) leukemia

For `CCOC(=O)c1c(-c2ccc(OC)cc2)ccn1C`, the TGI [1] was over 10 µM, the TGI [2] was over 10 µM and the TGI [3] was over 10 µM. The TGI [4] was over 10 µM, the TGI [5] was over 10 µM and the TGI [6] was over 10 µM. For the same compound, the TGI [7] was over 10 µM, the TGI [8] was over 10 µM and the TGI [9] was over 10 µM. The TGI [10] was over 10 µM, the TGI [11] was over 10 µM and the TGI [12] was over 10 µM. For the same compound, the TGI [13] was over 10 µM, the TGI [14] was over 10 µM and the TGI [15] was over 10 µM. For the same compound, the TGI [16] was over 10 µM, the TGI [17] was over 10 µM and the TGI [18] was over 10 µM. It also gave a TGI [19] of over 10 µM, a TGI [20] of over 10 µM and a TGI [21] of over 10 µM. For the same compound, the TGI [22] was over 10 µM, the TGI [23] was over 10 µM and the TGI [24] was over 10 µM. For the same compound, the TGI [25] was over 10 µM, the TGI [26] was over 10 µM and the TGI [27] was over 10 µM. It also gave a TGI [28] of over 10 µM, a TGI [29] of over 10 µM and a TGI [30] of over 10 µM. The TGI [31] was over 10 µM, the TGI [32] was over 10 µM and the TGI [33] was over 10 µM. It also gave a TGI [34] of over 10 µM, a TGI [35] of over 10 µM and a TGI [36] of over 10 µM. The TGI [37] was over 10 µM, the TGI [38] was over 9.68 µM and the TGI [39] was over 10 µM. It also gave a TGI [40] of over 10 µM, a TGI [41] of over 10 µM and a TGI [42] of over 10 µM. The TGI [43] was over 10 µM, the TGI [44] was over 10 µM and the TGI [45] was over 10 µM. For the same compound, the TGI [46] was over 10 µM, the TGI [47] was over 10 µM and the TGI [48] was over 10 µM. The TGI [49] was over 10 µM, the TGI [50] was over 10 µM and the TGI [51] was over 10 µM. For the same compound, the TGI [52] was over 10 µM, the TGI [53] was over 10 µM and the TGI [54] was over 10 µM. It also gave a TGI [55] of over 10 µM.
In the case of `O=C1Nc2ccccc2/C1=C\c1c(Cl)n(-c2ccccc2)c2ccccc12`, the TGI [2] is reported as 21.7 µM, the TGI [3] is reported as 4.13 µM and the TGI [4] is reported as 10.4 µM. The TGI [5] was 36.3 µM, the TGI [6] was 5.71 µM and the TGI [56] was 22.2 µM. It also gave a TGI [7] of 7.03 µM, a TGI [8] of 15.6 µM and a TGI [9] of 66.7 µM. It also gave a TGI [10] of over 100 µM, a TGI [11] of 9.83 µM and a TGI [12] of 25 µM. For the same compound, the TGI [13] was 14.6 µM, the TGI [14] was 13.7 µM and the TGI [15] was 16 µM. The TGI [57] was over 100 µM, the TGI [16] was 36.5 µM and the TGI [17] was 27 µM. The TGI [18] was 40.8 µM, the TGI [19] was 9.64 µM and the TGI [20] was 18.2 µM. It also gave a TGI [21] of 24 µM, a TGI [58] of over 100 µM and a TGI [22] of 29.7 µM. For the same compound, the TGI [23] was 20.6 µM, the TGI [24] was 13.3 µM and the TGI [25] was 88 µM. It also gave a TGI [26] of 12.9 µM, a TGI [27] of 4.86 µM and a TGI [28] of over 100 µM. The TGI [29] was 17.8 µM, the TGI [30] was 6.26 µM and the TGI [31] was 17.5 µM. For the same compound, the TGI [32] was 7.71 µM, the TGI [33] was 8.67 µM and the TGI [34] was over 100 µM. The TGI [36] was 18.4 µM, the TGI [37] was 29.8 µM and the TGI [38] was 60.3 µM. The TGI [39] was 10.1 µM, the TGI [40] was 7.7 µM and the TGI [41] was 18.1 µM. It also gave a TGI [42] of 6.46 µM, a TGI [43] of 21.6 µM and a TGI [44] of 8.91 µM. For the same compound, the TGI [45] was over 100 µM, the TGI [46] was over 100 µM and the TGI [47] was 12.2 µM. It also gave a TGI [48] of 21.9 µM, a TGI [49] of 6.45 µM and a TGI [50] of 10.9 µM. The TGI [51] was 14 µM, the TGI [52] was 7.63 µM and the TGI [53] was 56.7 µM. The TGI [54] was over 100 µM and the TGI [55] was 14 µM.
